Laboratory results published in US8741347B2, “Method for forming cyclodextrin polymer and lipophilic compound emulsions, resulting emulsions, and compositions including said emulsions” (Centre National de la Recherche Scientifique—CNRS, priority 2009, dated 2014).
Values belong to the compound of their own block, whether it stands above or below them.

Columns and labels:
[1] = Interfacial rheology, interfacial tension by the drop method (Tracker); type: physicochemical
Description: The interface (oil/aqueous solution of polymer) elastic behavior is measured from the variation in interfacial tension. The apparatus used for measuring the elastic properties is a Tracker®, manufactured by the company […] Concept. The interfacial tension is measured by the drop method. A deformation of the interfacial area by dilation or by contraction of the volume of the drop creates a variation in the interfacial concentration of the polymers adsorbed at the interface. The Tracker® records the response of the interfacial tension and subsequently establishes the relationship between the deformation of the interface and this response, which describes the rheological behavior of the interface. A deformation of the interfacial area is repeated over time by imposing a sinusoidal variation in the volume of the drop, and thus makes it possible to establish the viscoelastic characteristics of the interface. […] The drop is formed at the end of the capillary connected to a syringe, the plunger of which is controlled by a motor. The needle used has a 180° curve in order to have a rising drop, the density of the oils being in this case lower than that of the aqueous phase. The gauge of the needle is 18, which corresponds to an internal diameter of 0.84 mm and an external diameter of 1.27 mm. The needle is made of Teflon in order to avoid wetting of the drop on the walls of the needle. […]

[2] = Emulsion formation and stability over time, optical microscopy observation on storage; type: physicochemical; conditions: cyclodextrin monomer 17 mg/ml in water + 10 mg Parsol MCX per ml, pulsed sonication 40 s, stored at 25° C. with tangential agitation
Description: The α-, β- or γ-cyclodextrin monomers are placed in solution in water at a concentration of 17 mg/ml. 10 mg of Parsol® MCX are added to 1 ml of the aqueous solution of α-, β- or γ-cyclodextrin thus prepared. The mixture is then subjected to pulsed sonication for 40 seconds in an ice-cold bath (0° C.). The resulting product is stored at 25° C. with tangential agitation.
The α-, β- or γ-cyclodextrin dimers/trimers are put into solution in water. 10 mg of Parsol® MCX are added to 1 ml of the aqueous solution of α-, β- or γ-cyclodextrin dimer/trimer thus prepared. The mixture is then subjected to pulsed sonication for 40 seconds in an ice-cold bath (0° C.). The resulting product is stored at 25° C. with tangential agitation.
The resulting emulsions are conditioned for storage at 25° C., with tangential agitation, at 37° C. or 4° C. for a varying period ranging from a few days up to a few months before use.
Emulsions (a) to (c) are formed by pulsed sonication for a period of 40 seconds and stored at 25° C.

interfacial tension ([1]; oil drop in aqueous poly-β-CD solution): approximately 12 mN/m
SMILES: CC(C)=CCC/C(C)=C/CC/C(C)=C/CC/C=C(\C)CC/C=C(\C)CCC=C(C)C [squalene]

outcome of attempt to prepare an emulsion [2]: formation of an insoluble precipitate
SMILES: OC[C@H]1O[C@@H]2O[C@H]3[C@H](O)[C@@H](O)[C@@H](O[C@H]4[C@H](O)[C@@H](O)[C@@H](O[C@H]5[C@H](O)[C@@H](O)[C@@H](O[C@H]6[C@H](O)[C@@H](O)[C@@H](O[C@H]7[C@H](O)[C@@H](O)[C@@H](O[C@H]1[C@H](O)[C@H]2O)O[C@@H]7CO)O[C@@H]6CO)O[C@@H]5CO)O[C@@H]4CO)O[C@@H]3CO [α-cyclodextrin monomers, α-cyclodextrin]
outcome of attempt to prepare an emulsion ([2]; listed as α-monomers): an insoluble precipitate is formed as early as the first day (day zero)

outcome of attempt to prepare an emulsion [2]: formation of an insoluble precipitate
SMILES: OC[C@H]1O[C@@H]2O[C@H]3[C@H](O)[C@@H](O)[C@@H](O[C@H]4[C@H](O)[C@@H](O)[C@@H](O[C@H]5[C@H](O)[C@@H](O)[C@@H](O[C@H]6[C@H](O)[C@@H](O)[C@@H](O[C@H]7[C@H](O)[C@@H](O)[C@@H](O[C@H]8[C@H](O)[C@@H](O)[C@@H](O[C@H]1[C@H](O)[C@H]2O)O[C@@H]8CO)O[C@@H]7CO)O[C@@H]6CO)O[C@@H]5CO)O[C@@H]4CO)O[C@@H]3CO [β-cyclodextrin monomers, β-cyclodextrin]
behaviour of the oil/aqueous solution interface ([1]; squalene (borage, ginger) drop in aqueous cyclodextrin solution): formation of a rigid membrane at the surface of the squalene drop
outcome of attempt to prepare an emulsion ([2]; listed as β-monomers): an insoluble precipitate is formed as early as the first day (day zero)

SMILES: OC[C@H]1O[C@@H]2O[C@H]3[C@H](O)[C@@H](O)[C@@H](O[C@H]4[C@H](O)[C@@H](O)[C@@H](O[C@H]5[C@H](O)[C@@H](O)[C@@H](O[C@H]6[C@H](O)[C@@H](O)[C@@H](O[C@H]7[C@H](O)[C@@H](O)[C@@H](O[C@H]8[C@H](O)[C@@H](O)[C@@H](O[C@H]9[C@H](O)[C@@H](O)[C@@H](O[C@H]1[C@H](O)[C@H]2O)O[C@@H]9CO)O[C@@H]8CO)O[C@@H]7CO)O[C@@H]6CO)O[C@@H]5CO)O[C@@H]4CO)O[C@@H]3CO [γ-cyclodextrins, γ-cyclodextrin]
outcome of attempt to prepare an emulsion [2]: formation of an emulsion (for two days) and then a precipitation
outcome of attempt to prepare an emulsion ([2]; listed as γ-monomer): initially forms an emulsion and then precipitates rapidly (two days)
